The results in this text go back to US20090053138A1, “Stabilized Aptamers to Platelet Derived Growth Factor and their Use as Oncology Therapeutics” (priority 2002, published 2009).

[HEG] = hexaethylene glycol spacer joining aptamer pieces; [invdT] = inverted (3'-3') thymidine

In series [1] the target is T1, PDGF BB (Homo sapiens, UniProt P01127). In words: Binding of ARC124 to PDGF BB.
Series [2] deals with T2, PDGF AB (Homo sapiens, UniProt P01127). Put plainly: Binding of ARC124 to PDGF AB.
The next series deals with T3, PDGF-AA (Homo sapiens, UniProt P04085).
T3 construct: purchased PeproTech, Rocky Hill, N.J
Put plainly: Competition binding assay, PDGF-AA. From the text: (§1) Next, a study was done to determine whether ARC126 cross reacted with PDGF-BB of species other than human. Competition binding assays were set up by dot blot analysis, as previously described, using human, rat, and mouse PDGF-BB (PeproTech, Rocky Hill, N.J.).
(§2) The competitive binding assay previously described was used to determine the in vitro binding affinity and selectivity of ARC594 for different PDGF isoforms. Different concentrations of unlabeled, competitor aptamer were titrated in separate reactions against a fixed (<0.1 nM) amount of ^32P-radiolabeled ARC594 in buffer containing a fixed amount (0.1 nM) of the aptamer's cognate target (PDGF-BB; PeproTech). UnPEGylated version of ARC594 was radiolabeled at the 5′ terminus by incubation with γ-^32P-ATP (ICN) and polynucleotide kinase (NEB). Binding reactions were carried out in phosphate-buffered saline (Cellgro) containing 0.2 mg/mL bovine serum albumin (NEB) and 0.02 mg/mL tRNA (Sigma). […] The data was expressed as the ratio of the counts per minute (CPM) of radioactivity due to ^32P-ARC594 bound to PDGF BB on the nitrocellulose membrane (CPMnitrocellulose or CPMnc) over the total CPM (CPMtotal=CPMnitrocellulose+CPMnylon).

Series [3] addresses T1, PDGF BB. In words: Dot-blot binding assay, PDGF BB. To be noted: entirely DNA ARC126 used in the multivalent aptamer. The procedure: Binding data for the constituent aptamers and the multivalent aptamers were collected by dot-blot assays in which radio-labeled aptamer is incubated with protein target and then forced through a sandwich of nitrocellulose over nylon and the results shown in FIG. 22. Protein-associated radio-label is captured on the nitrocellulose membrane while the balance of the radio-label is captured on the nylon membrane. The radio-label data is collected on a phosphorimaging plate. […] The multivalent aptamers TK.131.012.A (SEQ ID NO. 9) and TK.131.012.B (SEQ ID NO. 10) were made synthetically.

Series [4] addresses T1, PDGF BB. Put plainly: 3T3 cell proliferation assay (PDGF-BB induced). It is filed as cell-based, rat. Also on record: purchased PeproTech, Rocky Hill, N.J. The settings on record: after lyophilization and storage at −20 degrees celsius for 2 years. The procedure: 3T3 cells, a rat fibroblast cell line (ATCC, Manassas, Va.), were plated 3,000 cells/well in a 96 well plate one day prior to the start of the assay in 100 ul DMEM/10% FCS. The following day, cells were washed once with straight DMEM and then 75 ul DMEM/0.8% FCS was added to each well. […] Cells were incubated for 3 days. Following incubation 10 ul MTT (Promega, Madison, Wis.) was added to each well and incubated for an additional 1.5 hours. Media was then removed, 200 ul Isopropanol (2-propanol) was added to each well, cells were re-suspended thoroughly and absorbance at 570 nm was read on a 96 well plate reader.
(§3) 3T3 cells, which are derived from a rat fibroblast cell line (ATCC, Manassas, Va.), were used in a proliferation assay to test potency of modified ARC513 aptamers. 3T3 fibroblast cells have PDGF receptors on their cell-surface and respond to mitogen, e.g., PDGF stimulation by proliferation. The assay was performed as follows: 3T3 cells were plated 3,000 cells/well in a 96 well plate one day prior to the start of the assay in 100 ul DMEM/10% FCS. The following day, cells were washed once with straight DMEM and then 75 ul DMEM/0.8% FCS was added to each well. Then 25 ul of PDGF-BB (PeproTech, Rocky Hill, N.J.) at a 50 ng/ml final concentration was added to each well +/− aptamer condition to be tested. […] The functional PDGF aptamer dilutions usually consisted of 6 points in 2-fold serial dilutions.
Cells were incubated for 3 days. Following incubation 10 ul MTT (Promega, Madison, Wis.) was added to each well and incubated for an additional 1.5 hours. Media was removed, 200 μl Isopropanol (2-propanol) was added to each well, cells were re-suspended thoroughly and absorbance at 570 nm was read on a 96 well plate reader. The present example depicts the potency comparison of PDGF aptamer ARC: 513 to that of ARC 513 variants.
The 3T3 proliferation assay previously described was used to test potency of all PEG conjugated ARC513 variants described immediately above. The assay was performed as follows: 3T3 cells were plated 3,000 cells/well in a 96 well plate one day prior to the start of the assay in 100 ul DMEM/10% FCS. The following day, cells were washed once with straight DMEM and then 75 ul DMEM/0.8% FCS was added to each well. Then 25 ul of PDGF-BB (PeproTech, Rocky Hill, N.J.) at a 50 ng/ml final concentration was added to each well +/− aptamer condition to be tested. […] The functional PDGF aptamer dilutions usually consisted of 6 points in 2-fold serial dilutions.
Cells were incubated for 3 days. Following incubation 10 ul MTT (Promega, Madison, Wis.) was added to each well and incubated for an additional 1.5 hours. Media was removed, 200 μl Isopropanol (2-propanol) was added to each well, cells were re-suspended thoroughly and absorbance at 570 nm was read on a 96 well plate reader. The present example depicts the potency comparison of PDGF aptamer ARC513 to that of PEGylated ARC513 aptamers.
as §3, with “3T3” for “3T3 cells, which are derived from a rat fibroblast cell line (ATCC, Manassas, Va.), were used in a proliferation assay to test potency of modified ARC513 aptamers. 3T3”, “100 μl” for “100 ul”
Cells were incubated for 3 days. Following incubation 10 ul MTT (Promega, Madison, Wis.) was added to each well and incubated for an additional 1.5 hours. Media was removed, […] Isopropanol (2-propanol) was added to each well, cells were re-suspended thoroughly and absorbance at 570 nm was read on a 96 well plate reader.

For series [5], the target named is T1, PDGF BB. In words: Competition binding assay, PDGF-BB. More on the design: purchased PeproTech, Rocky Hill, N.J. To be noted: human PDGF-BB; read-out: Kd. The procedure: Binding reactions were carried out in phosphate-buffered saline (Cellgro, Herndon, Va.) containing 0.2 mg/mL bovine serum albumin (NEB) and 0.02 mg/mL tRNA (Sigma, St. Louis, Mo.). The reactions were equilibrated for a period of 15-30 minutes at room temperature, then filtered through a sandwich of nitrocellulose (Protran membrane, Perkin-Elmer, Boston, Mass.) and nylon (Hybond membrane, Amersham, Piscataway, N.J.) membranes to separate target bound aptamer from free aptamer.
as §1
as §2, with “(Sigma). The reactions were equilibrated for a period of 15-30 minutes at room temperature, then filtered through a sandwich of nitrocellulose (Protran membrane, Perkin-Elmer) and nylon (Hybond membrane, Amersham) membranes to separate target bound aptamer from free aptamer.” for “(Sigma).”

Series [6] concerns the target T4, PDGF-BB (Mus musculus, UniProt P31240).
T4 construct: purchased PeproTech, Rocky Hill, N.J
In words: Competition binding assay, mouse PDGF-BB.
Excerpt: as §1

Series [7] concerns the target T2, PDGF AB. Put plainly: Competition binding assay, PDGF-AB. More on the design: purchased PeproTech, Rocky Hill, N.J.
Excerpt: as §1, §2

The target of series [8] is T5, PDGF-BB (Rattus norvegicus, UniProt Q05028).
T5 construct: purchased PeproTech, Rocky Hill, N.J
Put plainly: Competition binding assay, rat PDGF-BB.
Excerpt: as §1

The subject of a further series is HCT-116 tumor. To be noted: irinotecan 100 mg/kg plus Gleevec 50 mg/kg orally twice a day.
Series [9] deals with LS174T colon cancer xenograft. To be noted: Monday through Friday. The text has this:
Experimental overview. Human HT-29 or LS174T colon cancer xenotransplants were established in athymic nude mice (Nu/Nu mice, Charles River Labs, Wilmington, Mass.) by injecting mice with 1×10^7 HT29 cells (ATCC, Manassas, Va.), or 2×10^6 LS174T cells (ATCC Manassas, Va.) sub-cutaneously and allowing the tumors to grow for 5 days. On day 5, two dimensional measurements of the established tumors were taken using a digital caliper. Once tumor measurements were taken, the mice were randomized into groups such that the average tumor size was the same in each group. […]
A third experiment (Experiment 3) was designed to test ARC308/irinotecan and GLEEVEC™/irinotecan dosing regimens in a colon cancer xenotransplant model using human colon carcinoma cell line LS174T (ATCC). […] ARC308 was dosed via intraperitoneal delivery at 50 mg/kg once daily, and GLEEVEC™ was dosed at 50 mg/kg once daily, Monday through Friday. ARC308 prevents PDGF-BB from binding the PDGF receptor; this molecule has a 30K PEG attached. […] The results are statistically significant (two tailed students T-test).
An efficacy analysis of three treatment groups in this study is shown in Table 10 in terms of log cell kill and log cell kill net. Log cell kill is the log(base10) of the number of tumor cells before treatment divided by the number of cells after treatment. […] A fourth experiment (Experiment 4) was designed to further test ARC308/irinotecan dosing regimens in a colon cancer xenotransplant model using human colon carcinoma cell line LS174T (ATCC). […]

The subject of series [10] is HT29 colon cancer xenograft. Put plainly: HT29 colon cancer xenograft model. Format: in vivo, Nu/Nu mice. To be noted: GLEEVEC 50 mg/kg orally BID Qd5 + irinotecan 150 mg/kg weekly vs irinotecan alone.

T1 sequence (P01127 82-190 limits assumed): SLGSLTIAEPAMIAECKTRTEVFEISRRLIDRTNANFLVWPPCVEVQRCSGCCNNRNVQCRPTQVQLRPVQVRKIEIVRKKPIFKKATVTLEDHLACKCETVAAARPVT
T5 sequence (Q05028 66-174 limits assumed): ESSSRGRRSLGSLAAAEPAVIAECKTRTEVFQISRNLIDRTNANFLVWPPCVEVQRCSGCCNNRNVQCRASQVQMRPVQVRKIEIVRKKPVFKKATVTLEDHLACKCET
T2 sequence (P01127 82-190 limits assumed, other chains not shown): as the sequence (P01127 82-190 limits assumed) above
T4 sequence (P31240 82-190 limits assumed): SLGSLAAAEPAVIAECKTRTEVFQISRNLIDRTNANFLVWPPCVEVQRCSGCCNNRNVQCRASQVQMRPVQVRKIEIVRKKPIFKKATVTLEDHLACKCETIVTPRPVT
Method for HCT-116 tumor: Each group was assigned to a treatment regimen as follows. […] Doses were adjusted for changing body weight twice per week and all mice were dosed with vehicle or aptamer at 10 ml of dosing solution per kg body weight given intraperitoneally. […] Groups 3, 10 and 11 were dosed with vehicle intraperitinoneally once per day from days 8-25. Groups 3, 5, 7, 8, and 9 were dosed on day 11, 18 and 25 with irintoecan (100 mg/kg, intraperitoneally). […] Group 11 was dosed on day 11 and 25 with irintoecan (100 mg/kg, intraperitoneally) and twice a day with imatinib at 50 mg/kg given orally on days 8-12 and 23-25.
The aptamer was allowed to come to room temperature for an hour before dosing. Unused material was stored at 4° C. for use the next day. Normal saline for the vehicle control was sterile filtered into sample vials and stored in the same manner as the aptamer dosing solutions. Aptamer and vehicle dosing solutions were coded so that the personnel dosing were blinded from their identity.

With “5′ CACAGGCTACGGCACGTAGAGCATCACCATGATCCTGTG-3′InvdT (SEQ ID NO:11) (DNA, 3' [invdT], backbone not given here) [ARC124]”, the Kd with PDGF BB [1] and in the series with PDGF AB [2] was around 0.1 nM throughout.
Regarding “5′-(SEQ ID NO: 1)-HEG-(SEQ ID NO:2)-HEG-(SEQ ID NO:3)-3′-dT-3′ (chain 1 CAGGCUACG; chain 2 CGTAGAGCAUCA; chain 3 TGATCCUG; piece 1: 2'-fluoro at 6, 8, 2'-O-methyl at 9, 3' [HEG], other sugars and backbone not given here; piece 2: 2'-O-methyl at 5, 7, 12, 2'-fluoro at 10, 11, 3' [HEG], other sugars and backbone not given here; piece 3: 2'-fluoro at 5, 6, 7, 2'-O-methyl at 8, 3' [invdT], other sugars and backbone not given here) [ARC126]”, in the series with PDGF-AA, the “binding to PDGF-AA” value is given as “does not bind”. Also, the Kd with PDGF BB [3], with PDGF BB [5], in the series with PDGF-BB [6] (read-out: affinity for mouse PDGF-BB), with PDGF AB [7] and with PDGF-BB [8] (read-out: affinity for rat PDGF-BB) was around 0.1 nM in each case. In the series with PDGF BB [4], the “potency of legacy aptamers vs newly synthesized” value was “just as potent”. Further, in the series with PDGF-BB [6], the “affinity for mouse PDGF-BB” value was “equal affinity”. The “affinity for rat PDGF-BB” value with PDGF-BB [8] is “equal affinity”.
`Cc1ccc(NC(=O)c2ccc(CN3CCN(C)CC3)cc2)cc1Nc1nccc(-c2cccnc2)n1` [GLEEVEC™, imatinib, reference compound]: the “mice dead by day 17” value with HCT-116 tumor is reported as 4 of 12. Moreover, the “tolerability of dosing regimen” value in series [9] (Experiment 2: GLEEVEC 100 mg/kg once daily, P.O.) was “made the animals moribund”. The “efficacy of irinotecan (rate of tumor growth)” value in [9] (Experiment 3: GLEEVEC 50 mg/kg once daily, P.O + irinotecan) is reported as “did not enhance the efficacy of Irinotecan”; in series [10], “enhanced the efficacy of irinotecan treatment”.
